The values that follow come from ChEMBL document CHEMBL3046464, “3D quantitative structureactivity relationship for quinoline, benzimidazole and benzofuran-based analogs as phosphodiesterases IV (PDE-IV) inhibitors” (Med Chem Res, 2013).

As a reminder, the pIC50 is −log10 of the IC50, conventionally taken in molar units. Low readings indicate a large IC50, high ones a small IC50.

The target in this assay is Phosphodiesterase 4 (Homo sapiens, UniProt P27815+Q08499+Q07343+Q08493). As to the kind of experiment: Inhibition of PDE4 in Homo sapiens (human) U937 cells. Type of assay: cell-based. Particulars: u-937.

`CO/N=C(\C)c1ccc2c(C(=O)Nc3c(Cl)cncc3Cl)ccc(OC)c2n1` displayed a negative-log IC50 (pIC50) of 6.678.

The compound `COc1ccc(C(=O)Nc2c(Cl)cncc2Cl)c2c1ncn2C` had a negative-log IC50 (pIC50) of 5.
